*1 amine or outer side, *2 acyl side, *3 side chain or, on linkers, in order; H or OH if unused. Where a SMILES comes first, the peptide text is derived from it. Bridges are numbered along the chain shown (N, C = ends). Roman numbers before positions name the chains, in order. [ ]: non-standard residue; d: D form. Actinocin(1to9) = Cc1c2oc3c(C)ccc(C(=O)[*:2])c3nc-2c(C(=O)[*:1])c(N)c1=O; NMeV = CN[C@H](C(=O)O)C(C)C; Sar = CNCC(=O)O

What is called IC50 is the concentration that gives 50% inhibition. In general, Ki refers to the dissociation constant of the complex between target and ligand, obtained from inhibition or displacement.

Assay [1] deals with Prostaglandin G/H synthase 1 (Homo sapiens, UniProt P23219). Put plainly: biochemical. Type of assay: tissue-based, Platelet.
Sequence of Prostaglandin G/H synthase 1 (P23219 whole entry): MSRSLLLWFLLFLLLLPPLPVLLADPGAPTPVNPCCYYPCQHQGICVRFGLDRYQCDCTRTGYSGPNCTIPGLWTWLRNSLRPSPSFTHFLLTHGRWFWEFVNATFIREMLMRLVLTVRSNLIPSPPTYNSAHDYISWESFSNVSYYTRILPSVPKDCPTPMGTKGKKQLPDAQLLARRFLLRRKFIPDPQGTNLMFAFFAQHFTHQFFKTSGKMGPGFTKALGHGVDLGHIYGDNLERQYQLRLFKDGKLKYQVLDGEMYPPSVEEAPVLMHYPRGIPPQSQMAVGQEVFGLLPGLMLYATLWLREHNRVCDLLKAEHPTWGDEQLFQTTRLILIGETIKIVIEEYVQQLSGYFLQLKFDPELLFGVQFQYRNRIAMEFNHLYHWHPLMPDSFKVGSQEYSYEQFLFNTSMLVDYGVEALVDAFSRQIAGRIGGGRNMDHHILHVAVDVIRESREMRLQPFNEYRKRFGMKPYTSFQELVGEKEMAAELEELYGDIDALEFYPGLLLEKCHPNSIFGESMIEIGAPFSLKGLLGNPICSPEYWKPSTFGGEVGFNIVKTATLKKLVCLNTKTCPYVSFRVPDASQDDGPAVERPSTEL
Assay [2] can be described thus: DRUGMATRIX: Interleukin IL-1 radioligand binding (ligand: [125I] interleukin 1beta). Type of assay: cell membranes, Membrane. To be noted: nih3t3; Not Active = under 50% inhibition at 10 µM.
A short description of assay [3]: DRUGMATRIX: GABAA, Flunitrazepam, Central radioligand binding (ligand: [3H] Flunitrazepam). To be noted: Not Active = under 50% inhibition at 10 µM. In kind it is cell membranes, Rattus norvegicus, Wistar, Brain, Membrane.
In assay [4] the target is T1, Angiotensin-converting enzyme (Oryctolagus cuniculus, UniProt P12822).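 Further: enzymatic inhibition of angiotensin-converting enzyme measured with FAPGG as the substrate; in other assays of this panel Not Active means under 50% inhibition at 10 µM.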
T1 sequence (P12822 whole entry): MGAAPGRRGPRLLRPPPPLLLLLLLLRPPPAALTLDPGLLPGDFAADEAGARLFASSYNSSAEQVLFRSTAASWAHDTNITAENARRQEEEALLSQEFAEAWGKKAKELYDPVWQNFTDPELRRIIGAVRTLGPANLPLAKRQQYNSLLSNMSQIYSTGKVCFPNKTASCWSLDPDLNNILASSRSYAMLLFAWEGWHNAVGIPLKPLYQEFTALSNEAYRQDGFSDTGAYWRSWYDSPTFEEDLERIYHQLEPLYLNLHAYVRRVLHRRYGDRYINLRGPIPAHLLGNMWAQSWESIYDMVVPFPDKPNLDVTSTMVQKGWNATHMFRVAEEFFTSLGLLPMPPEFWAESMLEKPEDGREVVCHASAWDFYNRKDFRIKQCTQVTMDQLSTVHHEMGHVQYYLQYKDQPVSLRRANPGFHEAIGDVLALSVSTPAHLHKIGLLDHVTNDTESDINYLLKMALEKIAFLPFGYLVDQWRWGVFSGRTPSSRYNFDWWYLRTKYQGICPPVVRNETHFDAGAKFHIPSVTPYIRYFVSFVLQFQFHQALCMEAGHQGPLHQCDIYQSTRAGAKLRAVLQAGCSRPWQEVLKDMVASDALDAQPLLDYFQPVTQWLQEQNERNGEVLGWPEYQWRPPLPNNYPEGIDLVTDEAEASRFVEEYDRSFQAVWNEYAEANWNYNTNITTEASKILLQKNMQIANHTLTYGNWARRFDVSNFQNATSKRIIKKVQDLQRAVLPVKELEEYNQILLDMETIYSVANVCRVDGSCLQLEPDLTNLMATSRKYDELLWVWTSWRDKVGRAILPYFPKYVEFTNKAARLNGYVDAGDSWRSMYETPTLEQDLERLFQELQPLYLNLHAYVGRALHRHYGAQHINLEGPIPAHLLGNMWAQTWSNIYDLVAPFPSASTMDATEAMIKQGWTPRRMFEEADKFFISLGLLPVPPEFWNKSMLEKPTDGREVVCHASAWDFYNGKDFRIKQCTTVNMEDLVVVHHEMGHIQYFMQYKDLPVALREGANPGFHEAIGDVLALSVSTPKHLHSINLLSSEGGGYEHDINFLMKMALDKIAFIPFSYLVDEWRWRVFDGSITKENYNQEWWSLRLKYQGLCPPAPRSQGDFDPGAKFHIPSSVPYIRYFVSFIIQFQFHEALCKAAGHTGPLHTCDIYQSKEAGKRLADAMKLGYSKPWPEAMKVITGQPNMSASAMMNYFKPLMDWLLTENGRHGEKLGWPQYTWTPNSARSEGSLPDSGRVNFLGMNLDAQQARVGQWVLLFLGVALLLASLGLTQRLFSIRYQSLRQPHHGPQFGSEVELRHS
Type of assay: tissue-based, Lung.

The target of assay [5] is 5-hydroxytryptamine receptor 6 (Homo sapiens, UniProt P50406). In kind it is cell membranes, HeLa, Membrane. Further: in other assays of this panel Not Active means under 50% inhibition at 10 µM.
Sequence of 5-hydroxytryptamine receptor 6 (P50406 whole entry): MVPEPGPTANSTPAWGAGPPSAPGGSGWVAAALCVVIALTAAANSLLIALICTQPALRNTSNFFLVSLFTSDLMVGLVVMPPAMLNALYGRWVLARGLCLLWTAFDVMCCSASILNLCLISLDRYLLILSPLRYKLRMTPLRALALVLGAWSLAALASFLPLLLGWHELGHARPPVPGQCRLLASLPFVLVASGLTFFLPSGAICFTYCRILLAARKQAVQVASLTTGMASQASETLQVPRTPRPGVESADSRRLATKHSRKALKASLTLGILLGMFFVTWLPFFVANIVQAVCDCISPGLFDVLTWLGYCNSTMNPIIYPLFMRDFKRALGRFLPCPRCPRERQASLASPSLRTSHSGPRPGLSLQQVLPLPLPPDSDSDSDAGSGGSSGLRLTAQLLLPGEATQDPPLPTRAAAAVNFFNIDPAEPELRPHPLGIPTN
Assay [6] can be described thus: DRUGMATRIX: GABAA, Chloride Channel, TBOB radioligand binding (ligand: [3H] TBOB). Type of assay: cell membranes, Rattus norvegicus, Wistar, Cerebral cortex, Membrane. To be noted: Not Active = under 50% inhibition at 10 µM.
The target of a further assay is Vasopressin V1a receptor (Homo sapiens, UniProt P37288). In kind it is cell membranes, Membrane. To be noted: hek293. Further: in other assays of this panel Not Active means under 50% inhibition at 10 µM.
Sequence of Vasopressin V1a receptor (P37288 whole entry): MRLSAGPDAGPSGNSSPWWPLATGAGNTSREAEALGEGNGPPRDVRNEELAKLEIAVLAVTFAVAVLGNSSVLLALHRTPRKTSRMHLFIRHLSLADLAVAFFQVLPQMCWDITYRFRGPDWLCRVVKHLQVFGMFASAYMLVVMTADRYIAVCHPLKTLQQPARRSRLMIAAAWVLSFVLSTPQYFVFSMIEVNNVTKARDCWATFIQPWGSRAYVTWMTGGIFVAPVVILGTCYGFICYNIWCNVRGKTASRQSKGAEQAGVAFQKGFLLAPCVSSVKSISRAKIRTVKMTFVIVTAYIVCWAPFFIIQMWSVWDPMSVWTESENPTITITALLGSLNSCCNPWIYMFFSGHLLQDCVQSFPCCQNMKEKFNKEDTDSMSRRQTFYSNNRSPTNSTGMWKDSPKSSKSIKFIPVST
Assay [7] concerns the target Beta-2 adrenergic receptor (Homo sapiens, UniProt P07550). Put plainly: DRUGMATRIX: Adrenergic beta2 radioligand binding (ligand: [3H] CGP-12177). In kind it is cell membranes, Membrane. To be noted: cho; Not Active = under 50% inhibition at 10 µM.

On to LEAD (II) ACETATE, for which the IC50 entry in assay [1] (platelet), in assay [2], in assay [3], in assay [4], in assay [5] (hela) and in assay [6] was “Not Active” throughout. The IC50 result (against Vasopressin V1a receptor; in assay [7]) was “Not Active” in each case. For the same compound, the Ki entry in assay [1] (platelet), in assay [2], in assay [3], in assay [4], in assay [5] (hela) and in assay [6] was “Not Active” each time. Further, the Ki result (on Vasopressin V1a receptor; in assay [7]) was “Not Active” throughout.

As for `Cc1c2oc3c(C)ccc(C(=O)N[C@@H]4C(=O)N[C@H](C(C)C)C(=O)N5CCC[C@H]5C(=O)N(C)CC(=O)N(C)[C@@H](C(C)C)C(=O)O[C@@H]4C)c3nc-2c(C(=O)N[C@@H]2C(=O)N[C@H](C(C)C)C(=O)N3CCC[C@H]3C(=O)N(C)CC(=O)N(C)[C@@H](C(C)C)C(=O)O[C@@H]2C)c(N)c1=O` [DACTINOMYCIN] (I: T[dV]P[Sar][NMeV] / II: T[dV]P[Sar][NMeV]; ester I:1-I:C, II:1-II:C; linker I:N-II:N via Actinocin(1to9)), the IC50 entry in assay [1] (platelet), in assay [2], in assay [3], in assay [4], in assay [5] (hela) and in assay [6] was “Not Active” throughout. For the same compound, the IC50 entry (on Vasopressin V1a receptor; in assay [7]) was “Not Active” throughout. Moreover, the Ki entry in assay [2], in assay [3] and in assay [6] was “Not Active” throughout.

In the case of `NCCCCCC(=O)O` [AMINOCAPROIC ACID], the IC50 result in assay [1] (platelet), in assay [2], in assay [3], in assay [4], in assay [5] (hela) and in assay [6] was “Not Active” each time. For the same compound, the IC50 result (against Vasopressin V1a receptor; in assay [7]) was “Not Active” throughout. Besides, the Ki entry in assay [2], in assay [3] and in assay [6] was “Not Active” each time.

In the case of `c1ccc(Nc2ccc(Nc3ccccc3)cc2)cc1`, the IC50 in assay [1] (read-out: IC50) was 260 nM; in assay [2] it was “Not Active”; in assay [3] it was “Not Active”; in assay [4], “Not Active”; in assay [5] (hela) it was “Not Active”; in assay [6] it was “Not Active”. For the same compound, the IC50 entry (at Vasopressin V1a receptor; in assay [7]) was “Not Active” throughout. Also, the Ki entry in assay [2], in assay [3] and in assay [6] was “Not Active” throughout.

As to `NC(=O)N1c2ccccc2CCc2ccccc21`, the IC50 result in assay [1] (platelet), in assay [2], in assay [3], in assay [4], in assay [5] (hela) and in assay [6] was “Not Active” each time. The IC50 result (against Vasopressin V1a receptor; in assay [7]) was “Not Active” throughout. The Ki entry in assay [2], in assay [3] and in assay [6] was “Not Active” each time.

Regarding `Cc1onc(-c2ccccc2Cl)c1C(=O)N[C@@H]1C(=O)N2[C@@H]1SC(C)(C)[C@@H]2C(=O)O` [CLOXACILLIN], the IC50 entry in assay [1] (platelet), in assay [2], in assay [3], in assay [4], in assay [5] (hela) and in assay [6] was “Not Active” in each case. Besides, the concentration for half-maximal inhibition (IC50) entry (against Vasopressin V1a receptor; in assay [7]) was “Not Active” each time. The Ki result in assay [2], in assay [3] and in assay [6] was “Not Active” each time.

For `CCCN1C[C@H](CSC)C[C@@H]2c3cccc4[nH]cc(c34)C[C@H]21` [PERGOLIDE], the IC50 entry in assay [1] (platelet) was “Not Active”; in assay [2], “Not Active”; in assay [3], “Not Active”; in assay [4], “Not Active”; in assay [5] (read-out: IC50), 39 nM; in assay [6], “Not Active”. Further, the IC50 result (against Vasopressin V1a receptor; in assay [7]) was “Not Active” throughout. In addition, the Ki entry is “Not Active” in assay [2], “Not Active” in assay [3], 18 nM in assay [5] (read-out: Ki) and “Not Active” in assay [6].

For the compound LIPOPOLYSACCHARIDE E. COLI O55:B5, the IC50 entry in assay [1] (platelet), in assay [2], in assay [3], in assay [4], in assay [5] (hela) and in assay [6] was “Not Active” each time. In addition, the IC50 entry (against Vasopressin V1a receptor; in assay [7]) was “Not Active” each time. Besides, the Ki entry in assay [1] (platelet), in assay [2], in assay [3], in assay [4], in assay [5] (hela) and in assay [6] was “Not Active” in each case. Besides, the Ki entry (on Vasopressin V1a receptor; in assay [7]) was “Not Active” throughout.

On to `CC(O)CO` (centres undefined) [PROPYLENE GLYCOL], for which the IC50 entry in assay [1] (platelet), in assay [2], in assay [3], in assay [4], in assay [5] (hela) and in assay [6] was “Not Active” in each case. In addition, the IC50 result (on Vasopressin V1a receptor; in assay [7]) was “Not Active” each time. The Ki entry in assay [2], in assay [3] and in assay [6] was “Not Active” each time.

`CC(C)C(Br)C(=O)NC(N)=O` (centres undefined) [BROMISOVALUM]: the IC50 entry in assay [1] (platelet), in assay [2], in assay [3], in assay [4], in assay [5] (hela) and in assay [6] was “Not Active” throughout. In addition, the IC50 result (at Vasopressin V1a receptor; in assay [7]) was “Not Active” throughout. Further, the inhibition constant Ki result in assay [2], in assay [3] and in assay [6] was “Not Active” each time.

On to `CCC(C)n1ncn(-c2ccc(N3CCN(c4ccc(OCC5COC(Cn6cncn6)(c6ccc(Cl)cc6Cl)O5)cc4)CC3)cc2)c1=O` (centres undefined) [ITRACONAZOLE], for which the IC50 entry in assay [1] (platelet), in assay [2], in assay [3], in assay [4], in assay [5] (hela) and in assay [6] was “Not Active” each time. Besides, the IC50 entry (at Vasopressin V1a receptor; in assay [7]) was “Not Active” throughout. Besides, the Ki result in assay [2], in assay [3] and in assay [6] was “Not Active” throughout.

For `Nc1c(Br)cc(Br)cc1CN[C@H]1CC[C@H](O)CC1` [AMBROXOL], the IC50 entry in assay [1] (platelet), in assay [2], in assay [3], in assay [4], in assay [5] (hela) and in assay [6] was “Not Active” in each case. Besides, the IC50 entry (on Vasopressin V1a receptor; in assay [7]) was “Not Active” in each case. Further, the Ki entry in assay [2], in assay [3] and in assay [6] was “Not Active” in each case.

In the case of `C[C@](N)(Cc1ccc(O)c(O)c1)C(=O)O` [METHYLDOPA], the IC50 entry in assay [1] (platelet), in assay [2], in assay [3], in assay [4], in assay [5] (hela) and in assay [6] was “Not Active” in each case. The IC50 result (against Vasopressin V1a receptor; in assay [7]) was “Not Active” in each case. Further, the Ki result in assay [2], in assay [3] and in assay [6] was “Not Active” throughout.

These data come from ChEMBL document CHEMBL1909046, “DrugMatrix in vitro pharmacology data”.
